Reference: ChEMBL document CHEMBL1140252, “Deoxyribosyl analogues of methionyl and isoleucyl sulfamate adenylates as inhibitors of methionyl-tRNA and isoleucyl-tRNA synthetases” (Bioorg Med Chem Lett, 2005)

target: Methionine--tRNA ligase (Escherichia coli K-12, UniProt P00959); assay: Inhibitory concentration against Escherichia coli Met-tRNA synthetase
Sequence (P00959 whole entry): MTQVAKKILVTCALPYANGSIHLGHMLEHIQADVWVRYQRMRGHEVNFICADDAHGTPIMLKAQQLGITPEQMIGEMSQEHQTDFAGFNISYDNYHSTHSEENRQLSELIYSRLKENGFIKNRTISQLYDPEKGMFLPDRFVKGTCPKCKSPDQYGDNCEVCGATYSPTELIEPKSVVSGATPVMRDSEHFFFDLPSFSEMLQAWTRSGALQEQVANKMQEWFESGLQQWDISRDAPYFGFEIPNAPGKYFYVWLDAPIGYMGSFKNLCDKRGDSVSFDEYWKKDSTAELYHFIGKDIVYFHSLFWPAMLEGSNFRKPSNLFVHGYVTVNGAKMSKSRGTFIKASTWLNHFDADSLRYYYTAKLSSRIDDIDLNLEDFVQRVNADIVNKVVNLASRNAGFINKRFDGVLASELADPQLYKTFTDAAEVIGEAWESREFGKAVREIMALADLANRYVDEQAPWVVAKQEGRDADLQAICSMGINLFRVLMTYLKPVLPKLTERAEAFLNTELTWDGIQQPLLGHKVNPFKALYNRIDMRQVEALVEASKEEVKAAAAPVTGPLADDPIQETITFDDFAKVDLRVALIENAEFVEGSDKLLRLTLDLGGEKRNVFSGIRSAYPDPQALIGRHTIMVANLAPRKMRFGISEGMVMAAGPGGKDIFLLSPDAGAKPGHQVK

Compound | IC50
CSCC[C@H](N)C(=O)NS(=O)(=O)OC[C@H]1O[C@@H](n2cnc3c(N)ncnc32)[C@H](O)[C@@H]1O | 0.083 µM
CSCC[C@H](N)C(=O)NS(=O)(=O)O[C@@H]1CC[C@H](n2cnc3c(N)nnnc32)O1 | 0.383 µM
CSCC[C@H](N)C(=O)NS(=O)(=O)OC[C@@H]1C[C@@H](O)[C@H](n2cnc3c(N)ncnc32)O1 | 220 µM
CSCC[C@H](N)C(=O)NS(=O)(=O)OC[C@H]1O[C@@H](n2cnc3c(N)ncnc32)C[C@@H]1O | 110 µM

target: Isoleucine--tRNA ligase (Escherichia coli K-12, UniProt P00956); assay: Inhibitory concentration against Escherichia coli Ile-tRNA synthetase
Sequence (P00956 whole entry): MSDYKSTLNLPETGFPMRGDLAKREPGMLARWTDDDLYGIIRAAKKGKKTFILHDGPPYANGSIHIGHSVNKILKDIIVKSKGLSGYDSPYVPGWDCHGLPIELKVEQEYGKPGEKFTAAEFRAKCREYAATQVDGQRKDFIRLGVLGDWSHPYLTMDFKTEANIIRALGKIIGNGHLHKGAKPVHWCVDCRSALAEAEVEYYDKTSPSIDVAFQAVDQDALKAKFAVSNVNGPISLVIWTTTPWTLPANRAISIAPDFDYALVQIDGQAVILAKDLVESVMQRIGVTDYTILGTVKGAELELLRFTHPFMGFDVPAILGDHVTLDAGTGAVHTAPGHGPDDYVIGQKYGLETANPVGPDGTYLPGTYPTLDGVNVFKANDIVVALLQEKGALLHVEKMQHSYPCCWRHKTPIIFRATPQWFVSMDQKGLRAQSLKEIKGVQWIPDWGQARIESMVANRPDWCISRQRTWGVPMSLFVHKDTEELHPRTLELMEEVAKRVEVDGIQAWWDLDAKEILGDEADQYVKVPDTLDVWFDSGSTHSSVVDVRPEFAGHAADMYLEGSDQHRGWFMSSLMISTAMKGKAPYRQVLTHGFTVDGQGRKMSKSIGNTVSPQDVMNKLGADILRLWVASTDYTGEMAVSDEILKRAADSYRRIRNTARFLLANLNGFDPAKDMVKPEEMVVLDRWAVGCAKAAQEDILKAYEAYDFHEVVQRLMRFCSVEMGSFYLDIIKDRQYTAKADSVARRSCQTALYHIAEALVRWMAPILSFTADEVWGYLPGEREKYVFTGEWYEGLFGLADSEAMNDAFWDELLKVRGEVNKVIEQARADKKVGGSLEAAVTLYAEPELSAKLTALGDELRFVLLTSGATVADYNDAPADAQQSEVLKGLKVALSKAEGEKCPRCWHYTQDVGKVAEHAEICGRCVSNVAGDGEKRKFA

Compound | IC50
CC[C@H](C)[C@H](N)C(=O)NS(=O)(=O)O[C@H]1O[C@@H](n2cnc3c(N)ncnc32)C[C@@H]1O | 280 µM
CC[C@H](C)[C@H](N)C(=O)NS(=O)(=O)OC[C@@H]1CC[C@H](n2cnc3c(N)ncnc32)O1 | 6.4 µM
CC[C@H](C)[C@H](N)C(=O)NS(=O)(=O)OC[C@H]1O[C@@H](n2cnc3c(N)ncnc32)[C@H](O)[C@@H]1O | 0.265 µM
CC[C@H](C)[C@H](N)C(=O)NS(=O)(=O)OC[C@@H]1C[C@@H](O)[C@H](n2cnc3c(N)ncnc32)O1 | 35 µM
